Reference: patent US12054447B2, “PCNA inhibitors” (City of Hope, priority 2015, dated 2024)
pIC50: −log10 of the molar value.

Each compound was assayed on neuroblastoma cells (SH-SY5Y and SK-N-BE(2)c) (assay: Cell cycle analysis). Conditions: not given.
Format: cell-based
Experimental: Cells were seeded at 1×10^5/ml in a 6-well plate. Once attached overnight, cells were treated with or without AOH1160 for 6 or 24 h. After being fixed in 60% ethanol and stained with propidium iodide (PI), cells were analyzed by flow cytometry to determine the cellular PI fluorescence intensity. The flow cytometry data were analyzed by the FlowJo program to model various cell populations.
With `COc1cccc(Oc2ccccc2NC(=O)CNC(=O)c2cccc3ccccc23)c1` [PCNA7/ AOH1996] the cell cycle effect was “caused S/G2 cell cycle arrest”.

Each compound was assayed on RPMI-8226 (assay: NCI-60 panel test). Conditions: Homo sapiens; RPMI-8226, NCI-60 5-dose study.
Format: cell-based
Experimental: (§1) FIG. 7. NCI-60 panel test. The effect of AOH1160 on growth of the NCI-60 panel, which consists of 60 cancer cell lines representing 9 major cancer types, was tested in a 5-dose study. Shown are the Log IC50 values determined for each cell line. […] This study was performed by the National Institute of Cancer.
(§2) As observed in FIG. 7, the effect of AOH1160 on growth of the NCI-60 panel, which consists of 60 cancer cell lines representing 9 major cancer types, was tested in a 5-dose study. Shown are the Log IC50 values determined for each cell line.
With `COc1cccc(Oc2ccccc2NC(=O)CNC(=O)c2cccc3ccccc23)c1` [PCNA7/ AOH1996] the GI50 was 0.955 µM.

These compounds were tested on HL-60(TB) (assay: NCI-60 panel test). Conditions: Homo sapiens, NCI-60 5-dose study.
Format: cell-based
Experimental: as §1, §2
With `COc1cccc(Oc2ccccc2NC(=O)CNC(=O)c2cccc3ccccc23)c1` [PCNA7/ AOH1996] the GI50 was 0.0813 µM.

The compounds below were run on UO-31 (assay: NCI-60 panel test). Conditions: Homo sapiens; UO-31, NCI-60 5-dose study.
Format: cell-based
Experimental: as §1, §2
`COc1cccc(Oc2ccccc2NC(=O)CNC(=O)c2cccc3ccccc23)c1` [PCNA7/ AOH1996] gave a GI50 of 1.82 µM.

The compounds below were run on T-47D (assay: NCI-60 panel test). Conditions: Homo sapiens, T47D, NCI-60 5-dose study.
Format: cell-based
Experimental: as §1, §2
Compound `COc1cccc(Oc2ccccc2NC(=O)CNC(=O)c2cccc3ccccc23)c1` [PCNA7/ AOH1996] has a GI50 of 0.138 µM.

What follows are compounds tested on UACC-62 (assay: NCI-60 panel test). Conditions: Homo sapiens; UACC-62, NCI-60 5-dose study.
Format: cell-based
Experimental: as §1, §2
Compound `COc1cccc(Oc2ccccc2NC(=O)CNC(=O)c2cccc3ccccc23)c1` [PCNA7/ AOH1996] has a GI50 of 0.209 µM.

What follows are compounds tested on OVCAR-4 (assay: NCI-60 panel test). Conditions: Homo sapiens; OVCAR-4, NCI-60 5-dose study.
Format: cell-based
Experimental: as §1, §2
`COc1cccc(Oc2ccccc2NC(=O)CNC(=O)c2cccc3ccccc23)c1` [PCNA7/ AOH1996] showed a GI50 of 0.776 µM.

Each compound was assayed on NCI-H460 (assay: NCI-60 panel test). Conditions: Homo sapiens; NCI-H460, NCI-60 5-dose study.
Format: cell-based
Experimental: as §1, §2
`COc1cccc(Oc2ccccc2NC(=O)CNC(=O)c2cccc3ccccc23)c1` [PCNA7/ AOH1996] showed a GI50 of 0.295 µM.

Each compound was assayed on SR (assay: NCI-60 panel test). Conditions: Homo sapiens, NCI-60 5-dose study.
Format: cell-based
Experimental: as §1, §2
With `COc1cccc(Oc2ccccc2NC(=O)CNC(=O)c2cccc3ccccc23)c1` [PCNA7/ AOH1996] the GI50 was 0.115 µM.

The compounds below were run on ACHN (assay: NCI-60 panel test). Conditions: Homo sapiens, NCI-60 5-dose study.
Format: cell-based
Experimental: as §1, §2
In the case of `COc1cccc(Oc2ccccc2NC(=O)CNC(=O)c2cccc3ccccc23)c1` [PCNA7/ AOH1996], the GI50 was 0.398 µM.

These compounds were tested on HT29 (assay: NCI-60 panel test). Conditions: Homo sapiens, HT-29; HT29, NCI-60 5-dose study.
Format: cell-based
Experimental: as §1, §2
Compound `COc1cccc(Oc2ccccc2NC(=O)CNC(=O)c2cccc3ccccc23)c1` [PCNA7/ AOH1996] has a GI50 of 0.11 µM.

These compounds were tested on SK-MEL-5 (assay: NCI-60 panel test). Conditions: Homo sapiens; SK-MEL-5, NCI-60 5-dose study.
Format: cell-based
Experimental: as §1, §2
Compound `COc1cccc(Oc2ccccc2NC(=O)CNC(=O)c2cccc3ccccc23)c1` [PCNA7/ AOH1996] has a GI50 of 0.219 µM.

What follows are compounds tested on DU-145 (assay: NCI-60 panel test). Conditions: Homo sapiens; DU-145, NCI-60 5-dose study.
Format: cell-based
Experimental: as §1, §2
Compound `COc1cccc(Oc2ccccc2NC(=O)CNC(=O)c2cccc3ccccc23)c1` [PCNA7/ AOH1996] has a GI50 of 0.708 µM.

The compounds below were run on A549/ATCC (assay: NCI-60 panel test). Conditions: Homo sapiens, NCI-60 5-dose study.
Format: cell-based
Experimental: as §1, §2
In the case of `COc1cccc(Oc2ccccc2NC(=O)CNC(=O)c2cccc3ccccc23)c1` [PCNA7/ AOH1996], the GI50 was 0.316 µM.

What follows are compounds tested on EKVX (assay: NCI-60 panel test). Conditions: Homo sapiens, NCI-60 5-dose study.
Format: cell-based
Experimental: as §1, §2
`COc1cccc(Oc2ccccc2NC(=O)CNC(=O)c2cccc3ccccc23)c1` [PCNA7/ AOH1996] gave a GI50 of 1.29 µM.

Each compound was assayed on SF-539 (assay: NCI-60 panel test). Conditions: Homo sapiens; SF-539, NCI-60 5-dose study.
Format: cell-based
Experimental: as §1, §2
`COc1cccc(Oc2ccccc2NC(=O)CNC(=O)c2cccc3ccccc23)c1` [PCNA7/ AOH1996] gave a GI50 of 0.224 µM.

These compounds were tested on TK-10 (assay: NCI-60 panel test). Conditions: Homo sapiens; TK-10, NCI-60 5-dose study.
Format: cell-based
Experimental: as §1, §2
`COc1cccc(Oc2ccccc2NC(=O)CNC(=O)c2cccc3ccccc23)c1` [PCNA7/ AOH1996] showed a GI50 of 1.58 µM.

Each compound was assayed on HS 578T (assay: NCI-60 panel test). Conditions: Homo sapiens, NCI-60 5-dose study.
Format: cell-based
Experimental: as §1, §2
`COc1cccc(Oc2ccccc2NC(=O)CNC(=O)c2cccc3ccccc23)c1` [PCNA7/ AOH1996] gave a GI50 of 0.38 µM.

These compounds were tested on SF-295 (assay: NCI-60 panel test). Conditions: Homo sapiens; SF-295, NCI-60 5-dose study.
Format: cell-based
Experimental: as §1, §2
With `COc1cccc(Oc2ccccc2NC(=O)CNC(=O)c2cccc3ccccc23)c1` [PCNA7/ AOH1996] the GI50 was 0.112 µM.

What follows are compounds tested on OVCAR-3 (assay: NCI-60 panel test). Conditions: Homo sapiens; OVCAR-3, NCI-60 5-dose study.
Format: cell-based
Experimental: as §1, §2
With `COc1cccc(Oc2ccccc2NC(=O)CNC(=O)c2cccc3ccccc23)c1` [PCNA7/ AOH1996] the GI50 was 0.1 µM.

Each compound was assayed on MDA-MB-231/ATCC (assay: NCI-60 panel test). Conditions: Homo sapiens, NCI-60 5-dose study.
Format: cell-based
Experimental: as §1, §2
`COc1cccc(Oc2ccccc2NC(=O)CNC(=O)c2cccc3ccccc23)c1` [PCNA7/ AOH1996] was tested, and the GI50 was 0.776 µM.

What follows are compounds tested on non-malignant cells (assay: Toxicity to non-malignant cells). Conditions: neural crest stem cells (7SM0032), hSAEC, PBMCs.
Format: cell-based
Experimental: (§3) To measure the effect of the compounds on cell growth, cells were seeded at 3×10^4/ml into a 96-well plate. Once attached, cells were treated with various concentrations of AOH1160 for 72 h. Cell growth was measured by the CellTitor-Glo assay (Promega, Madison, WI) according to the manufacturer's instructions. To measure apoptosis, cells were seeded at 1×10^5/ml onto a chamber slide. Once attached, cells were treated with the 500 nM AOH1160 for 24 h. Cells were fixed and analyzed by a TUNEL assay using the TMR red in situ cell death detection kit (Roche Diagnostics, Indianapolis, IN).
To improve the anti-tumor potency of the compound while preserving its favorable selectivity, a series of compounds were synthesized and tested. […] The combined improvements in potency and selectivity lead to a significant improvement in the therapeutic window (FIG. 1). AOH1160 was tested in a broad range of non-malignant cells, including human primary mammary epithelial and small airway epithelial cells, and no significant toxicity was found in these cells up to a concentration of 10 μM.
`COc1cccc(Oc2ccccc2NC(=O)CNC(=O)c2cccc3ccccc23)c1` [PCNA7/ AOH1996] was tested, and the “toxicity to non-malignant cells” value was “minimal toxicity to non-malignant cells”.

What follows are compounds tested on SK-N-DZ (assay: Cell growth, CellTitor-Glo assay, 72 h). Conditions: Homo sapiens.
Format: cell-based
Experimental: (§4) The human NB cell lines, SK-N-DZ, SK-N-BE(2)c, SK-N-AS, and LAN-5 obtained from the American Type Culture Collection (Rockville, MD), were cultured in DMEM with 10% fetal bovine serum (FBS), 100 units/ml penicillin, and 100 μg/ml streptomycin in the presence of 5% CO2 at 37° C. Human PBMCs from a healthy donor were purchased from Sanguine BioSciences (Valencia, CA) and grown in RPMI1640 with 10% FBS, 100 units/ml penicillin, 100 μg/ml streptomycin, and 10 ng/ml IL-2 in the presence of 5% CO2 at 37° C. Human embryonic progenitor cell line 7SM0032 was acquired from Millipore (Billerica, MA) and grown in the hEPM-1 Media Kit purchased from the same company. The plasmid pCBASce expresses the rare cutting I-SceI meganuclease. The U20S-derived cell lines, DR-GFP and EJ5-GFP, each contain a stably transfected reporter gene for DSB repair mediated by HR and end joining (EJ), respectively. These cell lines were cultured in DMEM medium with 10% FBS at 37° C. in the presence of 5% CO2.
as §3
Work on `COc1cccc(Oc2ccccc2NC(=O)CNC(=O)c2cccc3ccccc23)c1` [PCNA7/ AOH1996] yielded a pIC50 of 6.54.

Each compound was assayed on SK-N-BE(2)c (assay: Cell growth, CellTitor-Glo assay, 72 h). Conditions: Homo sapiens.
Format: cell-based
Experimental: as §4, §3
`COc1cccc(Oc2ccccc2NC(=O)CNC(=O)c2cccc3ccccc23)c1` [PCNA7/ AOH1996] showed a pIC50 of 6.63.

What follows are compounds tested on SK-N-AS (assay: Cell growth, CellTitor-Glo assay, 72 h). Conditions: Homo sapiens.
Format: cell-based
Experimental: as §4, §3
In the case of `COc1cccc(Oc2ccccc2NC(=O)CNC(=O)c2cccc3ccccc23)c1` [PCNA7/ AOH1996], the pIC50 was 6.90.

What follows are compounds tested on PBMC (assay: Cell growth, CellTitor-Glo assay, 72 h). Conditions: Homo sapiens; PBMC (non-malignant).
Format: cell-based, human
Experimental: as §4, §3
`COc1cccc(Oc2ccccc2NC(=O)CNC(=O)c2cccc3ccccc23)c1` [PCNA7/ AOH1996] gave a pIC50 of less than 4.70.
